Experimental data taken from the supplement of paper PMC11208160.

Assay: recombinant barcode read abundance after kanamycin selection (control-corrected) (log10(CPM+1)); higher = more efficient recombination; sequences stand for … in AGTGCAGAGAAAATCGGCCAGTTTTCTCTGCCTGCAGTCCGCATGCCGT…AGATTTATGCAGCGGACTGCCTTTCTCCCAAAGTGATAAACCGGACAGTATCATGGACCGGTTTTCCCGGTAATCCGTATTTGCAAGGTTGGTTTCACT; site = the 11-nt target
Method in brief: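 A vector carrying a T7-inducible recombinase and the last 73 bp of the bridge RNA received, by Gibson cloning, oligos encoding a promoter, target, barcode and the first 104 bridge RNA bases under J23119. The pooled constructs entered E. coli together with a donor plasmid by electroporation. Selection used chloramphenicol/ampicillin/kanamycin with 0.1 mM IPTG, with chloramphenicol/ampicillin LB agar as the control, each in two replicates. Recombination efficiency is the averaged, control-corrected counts-per-million of barcodes at recombinant junctions, reported as log10(CPM+1).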
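Note: IS621 recombinase and bridge RNA in Escherichia coli cells.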

Row | Sequence | recombinant barcode read abundance (log10)
1 | TAGAGCACTTGGGTTCTAACCTGTTGCCT (site CAGAGCACTAG) | 0.114
2 | TAGAGCACTTGGGTTCTAACCTGTTGCCT (site GAGAGCACTAG) | 0.0873
3 | TAGAGCACTTGGGTTCTAACCTGTTGCCT (site TAGAGCACTAG) | 0.644
4 | TAGATCACTTGGGTTCTAACCTGTTGCAT (site TAGATCACTAT) | 0.629
5 | TAGATCACTTGGGTTCTAACCTGTTGCAT (site TAGCTCACTAT) | 0.408
6 | TAGATCACTTGGGTTCTAACCTGTTGCAT (site TAGGTCACTAT) | 0.0386
7 | TAGATCACTTGGGTTCTAACCTGTTGCAT (site TAGTTCACTAT) | 0.0464
8 | TAGATTACTTGGGTTCTAACCTGTTGCCT (site TAAAATACTAG) | 0.12
9 | TAGATTACTTGGGTTCTAACCTGTTGCCT (site TAGATTACTAG) | 0.178
10 | TAGATTCCTTGGGTTCTAACCTGTTGCAA (site CGACAGTCTAG) | 0.102
11 | TAGATTCCTTGGGTTCTAACCTGTTGCAA (site TAGATTCCTTT) | 0.0712
12 | TAGCACCCTTGGGTTCTAACCTGTTGCCA (site TAGCACCCTAG) | 0.394
13 | TAGCACCCTTGGGTTCTAACCTGTTGCCA (site TAGCACCCTCG) | 0.218
14 | TAGCACCCTTGGGTTCTAACCTGTTGCCA (site TAGCACCCTGG) | 0.156
15 | TAGCACCCTTGGGTTCTAACCTGTTGCCA (site TAGCACCCTTG) | 0.965
16 | TAGCACCCTTGGGTTCTAACCTGTTGCCT (site TAGCACCCTAG) | 1.79
17 | TAGCACCCTTGGGTTCTAACCTGTTGCCT (site TAGCACCCTCG) | 0.0128
18 | TAGCACCCTTGGGTTCTAACCTGTTGCCT (site TAGCACCCTGG) | 0.671
19 | TAGCACCCTTGGGTTCTAACCTGTTGCCT (site TAGCACCCTTG) | 0.144
20 | TAGCATACTTGGGTTCTAACCTGTTGCCT (site TAGCATACTAG) | 1.37
21 | TAGCATACTTGGGTTCTAACCTGTTGCCT (site TAGCATACTCG) | 0.112
22 | TAGCATACTTGGGTTCTAACCTGTTGCCT (site TAGCATACTGG) | 0.308

Row | Sequence | recombinant barcode read abundance (log10)
23 | TAGCATACTTGGGTTCTAACCTGTTGCCT (site TAGCATACTTG) | 0.0681
24 | TAGCCCACTTGGGTTCTAACCTGTTGCGG (site TAGCACACTCC) | 0.0811
25 | TAGCCCACTTGGGTTCTAACCTGTTGCGG (site TAGCCCACTCC) | 1.35
26 | TAGCCCACTTGGGTTCTAACCTGTTGCGG (site TAGCGCACTCC) | 0.0188
27 | TAGCCCACTTGGGTTCTAACCTGTTGCGG (site TAGCTCACTCC) | 0.393
28 | TAGCCTACTTGGGTTCTAACCTGTTGCCG (site TAGCCTACTCG) | 0.725
29 | TAGCCTACTTGGGTTCTAACCTGTTGCCG (site TAGGCTCCTCG) | 0.0184
30 | TAGCCTACTTGGGTTCTAACCTGTTGCGA (site TAGCCTACTAC) | 0.0304
31 | TAGCCTACTTGGGTTCTAACCTGTTGCGA (site TAGCCTACTCC) | 0.416
32 | TAGCCTACTTGGGTTCTAACCTGTTGCGA (site TAGCCTACTGC) | 0.00843
33 | TAGCCTACTTGGGTTCTAACCTGTTGCGA (site TAGCCTACTTC) | 1.2
34 | TAGCCTACTTGGGTTCTAACCTGTTGCGC (site TAGCCTACTAC) | 0.0597
35 | TAGCCTACTTGGGTTCTAACCTGTTGCGC (site TAGCCTACTCC) | 0.0856
36 | TAGCCTACTTGGGTTCTAACCTGTTGCGC (site TAGCCTACTGC) | 1.84
37 | TAGCCTACTTGGGTTCTAACCTGTTGCGC (site TAGCCTACTTC) | 0.0255
38 | TAGCCTACTTGGGTTCTAACCTGTTGCGT (site TAGCCTACTAC) | 0.581
39 | TAGCCTACTTGGGTTCTAACCTGTTGCGT (site TAGCCTACTCC) | 0.0265
40 | TAGCCTACTTGGGTTCTAACCTGTTGCGT (site TAGCCTACTGC) | 0.0357
41 | TAGCCTACTTGGGTTCTAACCTGTTGCGT (site TAGCCTACTTC) | 0
42 | TAGCCTTCTTGGGTTCTAACCTGTTGCAG (site TAGCCTTCTCT) | 1.14
43 | TAGCCTTCTTGGGTTCTAACCTGTTGCAG (site TAGGCGTCTCT) | 0.0752
44 | TAGCGGACTTGGGTTCTAACCTGTTGCCT (site TAGCAGACTAG) | 0.106

Row | Sequence | recombinant barcode read abundance (log10)
45 | TAGCGGACTTGGGTTCTAACCTGTTGCCT (site TAGCCGACTAG) | 0
46 | TAGCGGACTTGGGTTCTAACCTGTTGCCT (site TAGCGGACTAG) | 1.28
47 | TAGCGGACTTGGGTTCTAACCTGTTGCCT (site TAGCTGACTAG) | 0.0737
48 | TAGCGTCCTTGGGTTCTAACCTGTTGCAC (site TAGCGTCCTGT) | 1.11
49 | TAGCGTCCTTGGGTTCTAACCTGTTGCAC (site TCGCGTCCTTT) | 0.157
50 | TAGCTCCCTTGGGTTCTAACCTGTTGCCA (site TAGCTCCCTAG) | 0.676
51 | TAGCTCCCTTGGGTTCTAACCTGTTGCCA (site TAGCTCCCTCG) | 0.0851
52 | TAGCTCCCTTGGGTTCTAACCTGTTGCCA (site TAGCTCCCTGG) | 0.0734
53 | TAGCTCCCTTGGGTTCTAACCTGTTGCCA (site TAGCTCCCTTG) | 0.662
54 | TAGCTTACTTGGGTTCTAACCTGTTGCCG (site TAACTTACTAG) | 0.114
55 | TAGCTTACTTGGGTTCTAACCTGTTGCCG (site TAGCTTACTCG) | 0.523
56 | TAGGATACTTGGGTTCTAACCTGTTGCAA (site TAGGATACTAT) | 0.0732
57 | TAGGATACTTGGGTTCTAACCTGTTGCAA (site TAGGATACTCT) | 0.401
58 | TAGGATACTTGGGTTCTAACCTGTTGCAA (site TAGGATACTGT) | 0.0992
59 | TAGGATACTTGGGTTCTAACCTGTTGCAA (site TAGGATACTTT) | 1.98
60 | TAGGATTCTTGGGTTCTAACCTGTTGCGC (site ACCATACCTAT) | 0.114
61 | TAGGATTCTTGGGTTCTAACCTGTTGCGC (site TAGGATTCTGC) | 2.55
62 | TAGGATTCTTGGGTTCTAACCTGTTGCGT (site TAGGATGCTAC) | 0.144
63 | TAGGATTCTTGGGTTCTAACCTGTTGCGT (site TAGGATTCTAC) | 2.61
64 | TAGGCATCTTGGGTTCTAACCTGTTGCTC (site TAGACATCTGA) | 0.206
65 | TAGGCATCTTGGGTTCTAACCTGTTGCTC (site TAGCCATCTGA) | 0.36
66 | TAGGCATCTTGGGTTCTAACCTGTTGCTC (site TAGGCATCTGA) | 0.95
